ChEMBL document CHEMBL4680147, “Discovery of 6'-chloro-N-methyl-5'-(phenylsulfonamido)-[3,3'-bipyridine]-5-carboxamide (CHMFL-PI4K-127) as a novel Plasmodium falciparum PI(4)K inhibitor with potent antimalarial activity against both blood and liver stages of Plasmodium” (Eur J Med Chem, 2020)
Activity calls are given as the source filed them. The rule behind the calls is not given here.

What was measured:
[1] = Selectivity index, ratio of EC50 for antimalarial activity against Plasmodium falciparum harboring PI4K Y1342I/T1360A mutant infected in human O+ erythrocytes to EC50 for antimalarial activity against Plasmodium falciparum harboring PI4K Y1342I mutant infected in human O+ erythrocytes; format: functional
[2] = target: Phosphatidylinositol 3-kinase catalytic subunit type 3 (Homo sapiens, UniProt Q8NEB9); test: Inhibition of human VPS34 by ADP-Glo kinase assay
[3] = AUC(0 to infinity) in Sprague-Dawley rat at 10 mg/kg, po; format: ADME, organism-based; set-up: time infinity, route oral, dose 10 mg/kg; conditions: in vivo
[4] = Tmax in mouse at 10 mg/kg, po; format: ADME, organism-based; conditions: in vivo
[5] = Tmax in Sprague-Dawley rat at 10 mg/kg, po; format: ADME, organism-based; conditions: in vivo
[6] = Mean residence time (0 to t) in Sprague-Dawley rat at 1 mg/kg, iv; format: ADME, organism-based; conditions: in vivo
[7] = test system: Plasmodium falciparum; test: Antimalarial activity against blood stage Plasmodium falciparum harboring PI4K Y1342I mutant infected in human O+ erythrocytes incubated for 72 hrs by SYBR Green 1 dye based fluorescence assay; format: functional, organism-based; conditions: Erythrocyte
[8] = test system: Plasmodium yoelii; test: Antimalarial activity against blood stage Plasmodium yoelii infected in BALB/c mouse assessed as suppression of parasitemia at 60 mg/kg/day, po administered for 7 consecutive days starting from 1 day post-infection and measured after cessation of drug treatment by Giemsa-staining based microscopic analysis; format: functional, organism-based; conditions: time 7.0 day
[9] = Selectivity index, ratio of IC50 for human PI3Kbeta to IC50 for recombinant His-tagged Plasmodium falciparum 3D7 PI4K expressed in baculovirus infected Sf9 cells
[10] = target: Phosphatidylinositol 4,5-bisphosphate 3-kinase catalytic subunit gamma isoform (Homo sapiens, UniProt P48736); test: Inhibition of human PI3Kgamma by ADP-Glo kinase assay
[11] = target: Phosphatidylinositol 4-phosphate 3-kinase C2 domain-containing subunit beta (Homo sapiens, UniProt O00750); test: Inhibition of human PIK3C2beta by ADP-Glo kinase assay
[12] = Half life in mouse at 10 mg/kg, po; format: ADME, organism-based; conditions: in vivo
[13] = Apparent volume of distribution in mouse at 1 mg/kg, iv; format: ADME, organism-based; conditions: in vivo, read-out: Vz
[14] = Mean residence time (0 to t) in Sprague-Dawley rat at 10 mg/kg, po; format: ADME, organism-based; conditions: in vivo
[15] = Apparent clearance in mouse at 10 mg/kg, po; format: ADME, organism-based; conditions: in vivo, read-out: CL(app) (converted)
[16] = test system: Plasmodium falciparum; test: Antimalarial activity against pyrimethamine/chloroquine resistant Plasmodium falciparum PC26 infected in human O+ erythrocytes incubated for 72 hrs by SYBR Green 1 dye based fluorescence assay; format: functional, organism-based; conditions: PC26, Erythrocyte
[17] = Apparent volume of distribution in Sprague-Dawley rat at 1 mg/kg, iv; format: ADME, organism-based; conditions: in vivo, read-out: Vz
[18] = AUC(0 to infinity) in mouse at 10 mg/kg, po; format: ADME, organism-based; set-up: route oral, time infinity, dose 10 mg/kg; conditions: in vivo
[19] = Half life in Sprague-Dawley rat at 1 mg/kg, iv; format: ADME, organism-based; conditions: in vivo
[20] = Tmax in mouse at 1 mg/kg, iv; format: ADME, organism-based; conditions: in vivo
[21] = test system: Plasmodium falciparum; test: Antimalarial activity against pyrimethamine/chloroquine resistant Plasmodium falciparum CP286 infected in human O+ erythrocytes incubated for 72 hrs by SYBR Green 1 dye based fluorescence assay; format: functional, organism-based; conditions: CP286, Erythrocyte
[22] = test system: Plasmodium berghei; test: Antimalarial activity against […] luciferase-expressing Plasmodium berghei sporozoites infected in BALB/c mouse assessed as suppression of parasitemia at 1 to 15 mg/kg, po treated for 2 hrs followed by parasite infection and measured upto 8 days post-infection by luciferase based real-time imaging analysis; format: functional, organism-based; conditions: dose 1-15 mg/kg, time 194.0 hrs
[23] = Half life in mouse at 1 mg/kg, iv; format: ADME, organism-based; conditions: in vivo
[24] = test system: Plasmodium yoelii; test: Antimalarial activity against blood stage Plasmodium yoelii infected in BALB/c mouse assessed as suppression of parasitemia administered once daily via oral gavage for 7 consecutive days starting from 1 day post-infection and observed for 20 days by Giemsa-staining based microscopic analysis; format: functional, organism-based; conditions: dose 60-80 mg/kg/day, time 20.0 day
[25] = test system: Plasmodium yoelii; test: Antimalarial activity against blood stage Plasmodium yoelii infected in BALB/c mouse assessed as suppression of parasitemia at 60 mg/kg/day, po administered for 7 consecutive days starting from 1 day post-infection and observed for 20 days by Giemsa-staining based microscopic analysis; format: functional, organism-based; conditions: time 20.0 day
[26] = test system: Plasmodium falciparum; test: Antimalarial activity against chloroquine resistant Plasmodium falciparum D10 infected in human O+ erythrocytes incubated for 72 hrs by SYBR Green 1 dye based fluorescence assay; format: functional, organism-based; conditions: D10, Erythrocyte
[27] = Tmax in Sprague-Dawley rat at 1 mg/kg, iv; format: ADME, organism-based; conditions: in vivo
[28] = Apparent clearance in mouse at 1 mg/kg, iv; format: ADME, organism-based; conditions: in vivo, read-out: CL(app) (converted)
[29] = test system: Plasmodium falciparum; test: Antimalarial activity against pyrimethamine/chloroquine resistant Plasmodium falciparum C2A infected in human O+ erythrocytes incubated for 72 hrs by SYBR Green 1 dye based fluorescence assay; format: functional, organism-based; conditions: Erythrocyte
[30] = test system: Plasmodium yoelii; test: Antimalarial activity against blood stage Plasmodium yoelii infected in BALB/c mouse assessed as suppression of parasitemia at 80 mg/kg/day, po administered for 7 consecutive days starting from 1 day post-infection and observed for 20 days by Giemsa-staining based microscopic analysis; format: functional; conditions: time 20 day
[31] = Mean residence time (0 to t) in mouse at 10 mg/kg, po; format: ADME, organism-based; conditions: in vivo
[32] = Inhibition of recombinant His-tagged Plasmodium falciparum 3D7 PI4K expressed in baculovirus infected Sf9 cells using PI:PS as substrate incubated for 1 hr in presence of ATP by ADP-Glo kinase assay
[33] = Selectivity index, ratio of EC50 for antimalarial activity against wild type Plasmodium falciparum infected in human O+ erythrocytes to EC50 for antimalarial activity against Plasmodium falciparum harboring PI4K Y1342I mutant infected in human O+ erythrocytes; format: functional, Erythrocyte
[34] = Cmax in Sprague-Dawley rat at 1 mg/kg, iv; format: ADME, organism-based; set-up: route intravenous, dose 1 mg/kg; conditions: in vivo
[35] = Selectivity index, ratio of IC50 for human PI4K3beta to IC50 for recombinant His-tagged Plasmodium falciparum 3D7 PI4K expressed in baculovirus infected Sf9 cells
[36] = Oral bioavailability in Sprague-Dawley rat at 10 mg/kg; format: ADME, organism-based; conditions: in vivo
[37] = target: Phosphatidylinositol 4,5-bisphosphate 3-kinase catalytic subunit alpha isoform (Homo sapiens, UniProt P42336); test: Inhibition of human PI3Kalpha by ADP-Glo kinase assay
[38] = test system: Plasmodium falciparum; test: Antimalarial activity against Plasmodium falciparum GB4 infected in human O+ erythrocytes incubated for 72 hrs by SYBR Green 1 dye based fluorescence assay; format: functional, organism-based; conditions: GB4, Erythrocyte
[39] = test system: Plasmodium falciparum; test: Antimalarial activity against artemisinin and piperaquine-phosphate resistant Plasmodium falciparum 6320 infected in human O+ erythrocytes incubated for 72 hrs by SYBR Green 1 dye based fluorescence assay; format: functional, organism-based; conditions: Plasmodium falciparum, 6320, Erythrocyte

Phosphatidylinositol 3-kinase catalytic subunit type 3, sequence (Q8NEB9 whole entry): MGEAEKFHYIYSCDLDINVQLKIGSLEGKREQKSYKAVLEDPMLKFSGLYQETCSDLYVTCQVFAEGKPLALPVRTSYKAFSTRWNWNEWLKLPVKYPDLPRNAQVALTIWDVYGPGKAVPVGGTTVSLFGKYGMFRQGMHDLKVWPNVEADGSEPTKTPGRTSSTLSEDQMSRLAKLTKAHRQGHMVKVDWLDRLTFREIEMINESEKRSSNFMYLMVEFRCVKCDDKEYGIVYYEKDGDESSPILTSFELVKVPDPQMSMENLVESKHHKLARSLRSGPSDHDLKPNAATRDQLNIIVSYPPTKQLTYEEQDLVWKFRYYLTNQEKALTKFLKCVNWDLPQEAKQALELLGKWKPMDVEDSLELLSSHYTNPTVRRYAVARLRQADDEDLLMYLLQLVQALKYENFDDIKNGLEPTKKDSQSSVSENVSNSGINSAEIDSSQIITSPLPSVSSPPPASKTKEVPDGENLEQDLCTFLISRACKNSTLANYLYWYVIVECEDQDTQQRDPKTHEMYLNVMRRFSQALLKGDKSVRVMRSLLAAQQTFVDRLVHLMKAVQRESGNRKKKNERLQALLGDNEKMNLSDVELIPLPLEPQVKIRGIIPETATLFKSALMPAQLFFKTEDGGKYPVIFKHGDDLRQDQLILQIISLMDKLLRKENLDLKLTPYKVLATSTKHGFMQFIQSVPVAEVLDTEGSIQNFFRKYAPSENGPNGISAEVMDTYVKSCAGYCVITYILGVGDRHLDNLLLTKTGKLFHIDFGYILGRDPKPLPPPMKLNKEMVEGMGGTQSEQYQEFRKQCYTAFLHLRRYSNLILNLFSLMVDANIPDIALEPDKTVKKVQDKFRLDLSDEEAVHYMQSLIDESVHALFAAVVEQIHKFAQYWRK
Phosphatidylinositol 4,5-bisphosphate 3-kinase catalytic subunit gamma isoform, sequence (P48736 whole entry, the tested form may be a part, canonical isoform): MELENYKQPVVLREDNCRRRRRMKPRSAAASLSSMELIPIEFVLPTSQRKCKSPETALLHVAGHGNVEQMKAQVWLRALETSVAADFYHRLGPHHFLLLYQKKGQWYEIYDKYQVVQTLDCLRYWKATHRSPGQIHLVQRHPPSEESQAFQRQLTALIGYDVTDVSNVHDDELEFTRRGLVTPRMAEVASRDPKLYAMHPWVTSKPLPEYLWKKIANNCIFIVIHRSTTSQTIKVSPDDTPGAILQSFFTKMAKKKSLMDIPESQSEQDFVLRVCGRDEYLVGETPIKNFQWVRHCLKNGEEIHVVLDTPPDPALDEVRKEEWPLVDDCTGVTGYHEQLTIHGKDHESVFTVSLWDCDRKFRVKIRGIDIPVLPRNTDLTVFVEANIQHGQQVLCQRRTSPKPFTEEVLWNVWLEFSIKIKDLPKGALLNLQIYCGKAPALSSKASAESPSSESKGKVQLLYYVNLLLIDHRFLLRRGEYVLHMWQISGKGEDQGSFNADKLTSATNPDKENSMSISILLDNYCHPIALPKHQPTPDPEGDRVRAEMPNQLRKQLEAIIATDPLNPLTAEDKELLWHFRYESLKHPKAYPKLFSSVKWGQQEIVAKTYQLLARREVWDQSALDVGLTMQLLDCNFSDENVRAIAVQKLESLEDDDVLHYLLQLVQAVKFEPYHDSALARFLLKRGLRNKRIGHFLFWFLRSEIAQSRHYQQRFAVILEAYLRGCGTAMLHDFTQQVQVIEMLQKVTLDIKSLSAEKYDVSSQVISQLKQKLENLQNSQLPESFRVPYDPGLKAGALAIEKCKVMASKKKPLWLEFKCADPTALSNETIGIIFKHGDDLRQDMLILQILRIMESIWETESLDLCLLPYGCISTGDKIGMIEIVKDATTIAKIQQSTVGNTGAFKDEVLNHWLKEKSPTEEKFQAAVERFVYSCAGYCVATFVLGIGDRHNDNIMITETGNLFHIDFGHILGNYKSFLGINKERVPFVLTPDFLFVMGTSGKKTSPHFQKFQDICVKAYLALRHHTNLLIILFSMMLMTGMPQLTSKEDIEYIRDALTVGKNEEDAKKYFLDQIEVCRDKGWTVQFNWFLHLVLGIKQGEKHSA
Phosphatidylinositol 4-phosphate 3-kinase C2 domain-containing subunit beta, sequence (O00750 whole entry, the tested form may be a part): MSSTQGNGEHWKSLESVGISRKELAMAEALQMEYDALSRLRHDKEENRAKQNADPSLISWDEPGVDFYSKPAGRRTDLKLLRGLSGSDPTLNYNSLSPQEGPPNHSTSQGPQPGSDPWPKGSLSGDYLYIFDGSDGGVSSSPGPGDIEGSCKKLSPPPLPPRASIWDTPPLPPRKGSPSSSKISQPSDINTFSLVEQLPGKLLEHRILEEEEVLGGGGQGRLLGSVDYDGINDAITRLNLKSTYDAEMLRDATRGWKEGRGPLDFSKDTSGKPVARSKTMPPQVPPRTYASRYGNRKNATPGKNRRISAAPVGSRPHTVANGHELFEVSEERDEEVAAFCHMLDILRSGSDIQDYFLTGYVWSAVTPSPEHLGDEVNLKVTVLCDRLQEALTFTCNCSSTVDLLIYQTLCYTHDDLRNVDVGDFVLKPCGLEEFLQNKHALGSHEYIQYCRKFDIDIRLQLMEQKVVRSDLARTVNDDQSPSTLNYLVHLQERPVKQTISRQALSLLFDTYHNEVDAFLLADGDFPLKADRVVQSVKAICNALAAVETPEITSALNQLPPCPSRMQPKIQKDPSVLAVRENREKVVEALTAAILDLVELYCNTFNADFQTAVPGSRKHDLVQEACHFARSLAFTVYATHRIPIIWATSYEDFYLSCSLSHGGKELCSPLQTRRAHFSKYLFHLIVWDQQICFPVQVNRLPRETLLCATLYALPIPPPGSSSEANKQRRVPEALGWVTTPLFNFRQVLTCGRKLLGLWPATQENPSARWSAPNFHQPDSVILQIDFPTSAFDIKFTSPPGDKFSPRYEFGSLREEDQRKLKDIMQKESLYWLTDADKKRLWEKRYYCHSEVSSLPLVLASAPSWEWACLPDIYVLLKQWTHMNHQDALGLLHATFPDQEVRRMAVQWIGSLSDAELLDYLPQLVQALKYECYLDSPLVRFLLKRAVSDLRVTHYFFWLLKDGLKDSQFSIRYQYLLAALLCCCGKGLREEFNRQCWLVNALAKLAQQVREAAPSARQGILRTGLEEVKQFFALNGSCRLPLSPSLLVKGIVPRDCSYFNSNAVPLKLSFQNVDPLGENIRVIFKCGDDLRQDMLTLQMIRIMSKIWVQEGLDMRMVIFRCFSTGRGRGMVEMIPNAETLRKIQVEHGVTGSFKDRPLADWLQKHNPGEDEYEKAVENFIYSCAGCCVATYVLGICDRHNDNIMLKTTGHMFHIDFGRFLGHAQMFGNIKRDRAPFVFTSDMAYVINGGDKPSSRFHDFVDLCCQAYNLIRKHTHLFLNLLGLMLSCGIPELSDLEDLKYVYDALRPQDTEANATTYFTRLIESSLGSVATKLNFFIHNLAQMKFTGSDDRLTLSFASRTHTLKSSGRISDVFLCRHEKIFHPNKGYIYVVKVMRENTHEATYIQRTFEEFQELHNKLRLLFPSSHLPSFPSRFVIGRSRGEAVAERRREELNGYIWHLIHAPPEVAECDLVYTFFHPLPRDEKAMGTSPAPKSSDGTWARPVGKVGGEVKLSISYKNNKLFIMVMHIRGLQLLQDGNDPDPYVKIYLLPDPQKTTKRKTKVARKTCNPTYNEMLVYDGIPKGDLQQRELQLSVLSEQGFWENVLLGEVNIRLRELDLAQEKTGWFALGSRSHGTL
Phosphatidylinositol 4,5-bisphosphate 3-kinase catalytic subunit alpha isoform, sequence (P42336 whole entry, canonical isoform): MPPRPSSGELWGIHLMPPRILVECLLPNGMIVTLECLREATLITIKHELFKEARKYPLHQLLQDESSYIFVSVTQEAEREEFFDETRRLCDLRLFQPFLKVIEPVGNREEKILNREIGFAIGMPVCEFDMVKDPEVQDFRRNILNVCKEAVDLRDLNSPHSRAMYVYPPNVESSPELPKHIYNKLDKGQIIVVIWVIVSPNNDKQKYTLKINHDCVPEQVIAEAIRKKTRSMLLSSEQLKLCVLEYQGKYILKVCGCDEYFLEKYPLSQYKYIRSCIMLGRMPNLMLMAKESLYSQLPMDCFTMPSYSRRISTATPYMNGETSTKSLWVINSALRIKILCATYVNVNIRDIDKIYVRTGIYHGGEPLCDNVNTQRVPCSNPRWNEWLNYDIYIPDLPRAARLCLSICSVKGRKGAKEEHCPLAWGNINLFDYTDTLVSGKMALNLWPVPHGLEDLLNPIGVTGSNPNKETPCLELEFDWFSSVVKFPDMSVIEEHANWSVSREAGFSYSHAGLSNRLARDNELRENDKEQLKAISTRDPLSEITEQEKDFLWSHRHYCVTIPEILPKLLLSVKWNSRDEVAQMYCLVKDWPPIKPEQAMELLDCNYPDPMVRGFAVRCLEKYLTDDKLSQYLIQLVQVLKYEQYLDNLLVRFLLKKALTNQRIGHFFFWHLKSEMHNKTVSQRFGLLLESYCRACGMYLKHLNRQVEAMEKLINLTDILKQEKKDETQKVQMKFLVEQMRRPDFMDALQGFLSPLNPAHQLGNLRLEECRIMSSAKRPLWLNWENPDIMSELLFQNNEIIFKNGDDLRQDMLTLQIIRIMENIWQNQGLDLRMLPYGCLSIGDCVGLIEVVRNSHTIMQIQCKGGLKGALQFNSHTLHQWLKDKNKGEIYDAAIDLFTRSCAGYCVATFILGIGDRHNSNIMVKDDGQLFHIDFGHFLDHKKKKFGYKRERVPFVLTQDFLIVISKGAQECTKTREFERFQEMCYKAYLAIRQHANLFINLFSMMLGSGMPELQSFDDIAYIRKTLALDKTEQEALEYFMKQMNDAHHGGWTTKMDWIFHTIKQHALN

CNC(=O)c1cncc(-c2cnc(Cl)c(NS(=O)(=O)c3ccccc3)c2)c1
Ratio EC50 [1]: 24 | IC50 [2]: 681 nM | AUC(0-inf) [3]: 19300 ng·h/mL | Tmax [4]: 0.19 h | Tmax [5]: 0.83 h | MRT last [6]: 1 h | EC50 [7]: 10.2 nM | Activity [8]: inactive | Ratio IC50 [9]: 400 | IC50 [10]: 324 nM | IC50 [11]: > 10000 nM | half-life [12]: 3.6 h | Vd [13]: 12.1 L/kg | MRT last [14]: 4.3 h | CL/F [15]: 65 mL/min/kg | EC50 [16]: 44 nM | Vd [17]: 2.6 L/kg | AUC(0-inf) [18]: 2380 ng·h/mL | half-life [19]: 3.5 h | Tmax [20]: 1.8 min | EC50 [21]: 24.1 nM | Activity [22]: Active | half-life [23]: 2.7 h | Activity [24]: Dose dependent effect | Activity [25]: Active | EC50 [26]: 28 nM | Tmax [27]: 1.2 min | clearance [28]: 51.7 mL/min/kg | EC50 [29]: 28 nM | Activity [30]: 100% | MRT last [31]: 4.4 h | IC50 [32]: 0.9 nM | Ratio EC50 [33]: 2 | Cmax [34]: 5010 ng/mL | Ratio IC50 [35]: 400 | bioavailability [36]: 89% | IC50 [37]: 191 nM | EC50 [38]: 47.8 nM | EC50 [39]: 24.7 nM
